Laboratory results: patent publication US7718385B2, “Bioactivation of alkylating agents for cancer treatment” (priority 2003, dated 2010)

Assays:
[1] = Nonenzymatic reactivity of the 8,9-double bond with GSH (absorbance 330 nm); format: physicochemical; details: 3.25 mM GSH, pH 7.4, 1 h, 30° C.
Source text: Reaction of the 8,9-double bond with GSH was followed spectrophotometrically at 330 nm.
The sulfhydryl group of GSH is a potent nucleophile that rapidly reacts with most electrophilic α,β-unsaturated carbonyl groups via a Michael-addition mechanism.

NCI-H522 = details: NCI-H522, Non-Small Cell Lung, cited from earlier work
HT29 = details: HT29, Colon, cited from earlier work
SNB-19 = details: SNB-19, Central Nervous System, cited from earlier work
SN12C = details: cited from earlier work
MCF7 = details: MCF7, Breast, cited from earlier work

CC1=C(CO)C2=C(C)C3(CC3)[C@@](C)(O)C(=O)C2=C1 [Irofulven, 6-hydroxymethylacylfulvene]
reactivity of the α,β-unsaturated ketone with GSH [1]: relatively resistant to nucleophilic attack | GI50 (NCI-H522): 158 nM | TGI (NCI-H522): 6.31E−07 | log(GI50) (NCI-H522): −6.8 | log(LC50) (NCI-H522): −5.1 | log(TGI) (NCI-H522): −6.2 | CC50 (NCI-H522; read-out: LC50): 7940 nM | GI50 (HT29): 251 nM | TGI (HT29): 1.26E−06 | log(GI50) (HT29): −6.6 | log(TGI) (HT29): −5.9 | CC50 (HT29; read-out: LC50): ≥ 100000 nM | GI50 (SNB-19): 316 nM | TGI (SNB-19): 1.00E−05 | log(GI50) (SNB-19): −6.5 | log(LC50) (SNB-19): −4.2 | log(TGI) (SNB-19): −5 | CC50 (SNB-19; read-out: LC50): 63100 nM | GI50 (SN12C; Renal): 398 nM | TGI (SN12C; Renal): 5.01E−06 | log(GI50) (SN12C; Renal): −6.4 | log(LC50) (SN12C; Renal): −4.3 | log(TGI) (SN12C; Renal): −5.3 | CC50 (SN12C; read-out: LC50, Renal): 50100 nM | GI50 (MCF7): 251 nM | TGI (MCF7): 2.00E−06 | log(GI50) (MCF7): −6.6 | log(TGI) (MCF7): −5.7 | CC50 (MCF7; read-out: LC50): ≥ 100000 nM
